# Measured values reported in US12319913B2, “5-halouracil-modified microRNAs and their use in the treatment of cancer” (The Research Foundation for The State University of New York, priority 2018, dated 2025).
# [5FU] = 5-fluorouracil base replacing uracil
# Tests used:
# [1] = test system: MDA-MB-231 triple negative breast cancer cells; assay: MTT cell proliferation, MDA-MB-231, with or without oligofectamine; format: cell-based, human; conditions: for cell proliferation without delivery vehicle (no oligofectamine): MDA-MB-231, MTT assay; for cell proliferation in the presence of oligofectamine: MDA-MB-231, MTT assay for 6 days, vs miR-NC
# Description: (§1) For transfections, 1×10^5 cells were plated in six-well plates and transfected with 100 nM of control non-specific miRNA (Thermo Fischer), a modified microRNA, or exogenous native microRNA after 24 hours using Oligofectamine (Thermo Fischer) following the manufacturer's protocols. For reagent free transfection, cells were plated in 6 well plates at (1×10^5) cells per well. Twenty-four hours later 100 pmol miRNA (Control, miR-15a, Mimic-1) were diluted in Optimem (Thermo Fischer) and added to the plate. Media was changed after 24 hours. Media was supplemented with 10% fetal bovine serum (Thermo Fischer). Briefly, cells were cultured in growth media (DMEM/F12 supplemented with B27, 10 ng/mL bFGF, and 20 ng/mL EGF (Life Technologies) in ultra-low attachment flasks) for up to 6 days. The spheroid cells were maintained by collection through gentle centrifugation, dissociation to single cells and replating.
# Furthermore, to test whether or not the modified microRNAs of the present disclosure can be delivered directly to cells and taken up by the cancer cells without the use of transfer agents or vehicles (i.e., oligofectamine), MDA-MB-231 triple negative breast cancer cells were transfected with miR-NC (negative control), exogenous unmodified miR-200b or miR-489, 5-FU-miR-200b or modified miR-489 by using oligofectamine or without delivery vehicle. As shown in FIGS. 17A-17B and 20A, the effects of expression of the exemplary modified miRs tested on breast cancer cell proliferation were monitored by MTT assay for 6 days upon transfection or incubation.
# MDC1 and SUZ12 = assay: Western blot of MDC1 and SUZ12 in triple negative breast cancer cells; format: cell-based, human; conditions: triple negative breast cancer cells, western blot
# Description: (§2) Western immunoblot analysis: Forty-eight hours after transfection, equal amounts of protein (15 μg) extracted from cells lysed in RIPA buffer with protease inhibitor (Sigma) and were separated on 10%-12% sodium dodecyl sulfate-polyacrylamide gels using standard procedures. The primary antibodies used for the analysis were rabbit anti-YAP1 monoclonal antibody (1:10000) (Cell Signaling Technologies), anti-DLCK1 (1:500) (Abcam), anti-BCL2 (1:500) (NeoMarkers), anti-MDC1 (1:500), anti-SUZ12 (1:500), anti-pChk-1 (1:500), anti beta-actin (1:500), anti-BMI-1 (1:10000) (Cell Signaling Technologies), mouse anti-human TS antibody (1:500), anti-α-tubulin (1:50000) (Santa Cruz Biotech Inc.), anti-GAPDH (1:100000) (Santa Cruz Biotech Inc.), anti-E2F3 (1:500) (Santa Cruz Biotech Inc.), Horseradish peroxidase-conjugated antibodies against mouse or rabbit (1:5000, Santa Cruz Biotech Inc.) were used as the secondary antibodies. Protein bands were visualized with autoradiography film using SuperSignal West Pico Chemiluminescent Substrate (Thermo Fischer). Western blot density was quantified using Image J software.
# REH leukemia cells = assay: Cell cycle analysis, REH leukemia cells; format: cell-based, human; conditions: 50 nM, compared to the control
# Description: (§3) Cell cycle analysis: Twenty-four hours after transfection, cells were harvested and resuspended at 0.5 to 1×10^6 cells/mL in modified Krishan's buffer supplemented with 0.02 mg/mL RNase H and 0.05 mg/mL propidium iodide. Stained cells were detected by flow cytometry and results were analyzed with Modfit LT™ software. The experiments for cell cycle analysis were performed at least three times.
# [2] = test system: Panc-1 pancreatic cancer cells; assay: Cell proliferation, Panc-1; format: cell-based, human; conditions: PANC-1; 50 nM, 25 nM, 12.5 nM, 6.25 nM, and 3.125 nM
# Description: as §1, with “For transfections, 1×10^5 cells were plated in six-well plates and transfected with 100 nM of control non-specific miRNA (Thermo Fischer), a modified microRNA, or exogenous native microRNA after 24 hours using Oligofectamine (Thermo Fischer) following the manufacturer's protocols.” left out
# (§4) Cell proliferation assay: Twenty-four hours after transfection, cells were seeded in 96-well plates at a density of 2000 cells per well. The cell proliferation assay was performed on days 1 to 5 by incubating 10 μl WST-1 (Roche Applied Science, Mannheim, Germany) in the culture medium for 1 h and reading the absorbance at 450 and 630 nm. The cell proliferation rate was calculated by subtracting the […]. Experiments for the cell proliferation assay were performed at least three times. The O.D. was calculated by subtracting the absorbance at 630 nm from that at 450 nm. Proliferation experiments were performed three times.
# [3] = test system: AsPC-1 pancreatic cancer cells; assay: Cell proliferation, AsPC-1; format: cell-based, human; conditions: APSC-1; 50 nM, 25 nM, 12.5 nM, 6.25 nM, and 3.125 nM
# Description: as §1, with “For transfections, 1×10^5 cells were plated in six-well plates and transfected with 100 nM of control non-specific miRNA (Thermo Fischer), a modified microRNA, or exogenous native microRNA after 24 hours using Oligofectamine (Thermo Fischer) following the manufacturer's protocols.” left out
# as §4
# A549 lung cancer cells = assay: Cell proliferation, A549; format: cell-based, human; conditions: A549, compared to negative controls
# Description: as §1, §4
# [4] = test system: Hs766T pancreatic cancer cells; assay: Cell proliferation, Hs766T; format: cell-based, human; conditions: compared to negative controls
# Description: as §1, §4
# AGS stomach cancer cells = assay: Cell proliferation, AGS; format: cell-based, human; conditions: compared to negative controls
# Description: as §1, §4
# [5] = test system: SKBR3 breast cancer cells; assay: Cell proliferation, SKBR3; format: cell-based, human; conditions: SKBR3, compared to negative controls
# Description: as §1, §4
# [6] = test system: acute lymphocytic leukemia cell line (REH); assay: Cell proliferation, REH; format: cell-based, human; conditions: compared to negative controls
# Description: as §1, §4
# [7] = test system: acute lymphocytic leukemia cell line (REH); assay: Cell proliferation, REH; format: cell-based, human; conditions: 50 nM, 25 nM, 12.5 nM, 6.25 nM, and 3.125 nM
# [8] = test system: HCT116 colon cancer cells; assay: WST-1 cell proliferation assay, HCT116; format: cell-based, human; conditions: HCT-116, WST-1, six days after transfection
# Description: as §1, with “1×10^5 cells were plated in six-well plates and transfected with 100 nM of control non-specific miRNA (Thermo Fischer), a modified microRNA, or exogenous native microRNA after 24 hours using Oligofectamine” left out
# as §4
# HCT-116 cells = assay: Cell cycle analysis by flow cytometry, colon cancer cells; format: cell-based, human; conditions: colon cancer cells, compared to the control
# Description: as §3
# colon cancer stem cells = assay: Anchorage-independent colony formation (soft agar); format: cell-based, human; conditions: soft agar / Matrigel matrix
# Description: Anchorage-independent proliferation was studied to determine cancer cell colony forming ability. Cancer cells were trypsinized and counted and a total of 1×10^5 cells per well were transfected in 6-well plates with 25 nM modified microRNA or native miRs or a negative control miRNA with oligofectamine, and 6 hours after transfection, cells were recounted. A total of 20,000 cells in 0.35% agar (Bacto Agar; Becton Dickinson) were layered on top of 1 mL of a solidified 0.6% agar layer in a 35-mm dish. Growth media with B27, 10 ng/mL bFGF, and 20 ng/mL EGF were included in both layers. After 2 weeks of incubation, colonies more than […] in diameter were counted.
# [9] = test system: YAP1, BMI1, DCLK1 and BCL2; assay: Western blot of miR-15a targets in HCT-116 colon cancer stem cells; format: cell-based, human; conditions: three days following transfection
# Description: as §2, with “[…],” for “Forty-eight hours after transfection,”, “software. […]” for “software.”
# [10] = test system: MDA-MB-231 breast cancer cells; assay: Cell cycle analysis, MDA-MB-231 breast cancer cells; format: cell-based, human; conditions: compared to native exogenous microRNAs or NC
# Description: as §3
# fibronectin = assay: Western blot of miR-200b target in breast cancer cells; format: cell-based, human; conditions: compared to exogenous native miR-200b and negative control
# Description: as §2
# TS-FdUMP = target: T1, TS-FdUMP (Homo sapiens, UniProt P04818); assay: Western blot of TS / TS-FdUMP in MDA-MB-231 cells; format: cell-based; conditions: MDA-MB-231 cell line
# T1 construct: endogenous in cells
# T1 sequence (P04818 2-313 limits assumed): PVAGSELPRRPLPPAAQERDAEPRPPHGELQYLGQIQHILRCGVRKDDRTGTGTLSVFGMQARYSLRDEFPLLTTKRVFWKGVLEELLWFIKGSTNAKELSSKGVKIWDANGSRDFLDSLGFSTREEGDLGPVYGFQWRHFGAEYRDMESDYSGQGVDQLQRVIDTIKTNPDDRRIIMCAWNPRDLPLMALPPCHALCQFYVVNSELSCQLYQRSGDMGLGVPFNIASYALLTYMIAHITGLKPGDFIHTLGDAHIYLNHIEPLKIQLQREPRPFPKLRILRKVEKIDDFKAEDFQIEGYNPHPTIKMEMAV
# Description: as §2
Substance,cell proliferation without delivery vehicle (no oligofectamine) [1],cell proliferation in the presence of oligofectamine [1],"cancer cell proliferation, native miR without 5-FU chemotherapy ([1]; MDA-MB-231, MTT, compared with 5 μM 5-FU alone)",MDC1 and SUZ12 protein expression (MDC1 and SUZ12),G1/S ratio (REH leukemia cells),"cell proliferation, dose dependence [2]","cell proliferation, dose dependence [3]",lung cancer cell proliferation (A549 lung cancer cells),pancreatic cancer cell proliferation [4],gastric cancer cell proliferation (AGS stomach cancer cells),breast cancer cell proliferation [5],leukemia cancer cell proliferation [6],"leukemia cancer cell proliferation, dose dependence [7]",decrease of cell proliferation compared to control [8] [%],increase in the G1/S ratio (HCT-116 cells),colony / sphere formation (colon cancer stem cells),"protein levels of YAP1, BMI1, DCLK1 and BCL2 [9]",sub G1 and G1/S ratio [10],fibronectin (miR-200b target gene) expression (fibronectin),TS-FdUMP break down (TS-FdUMP)
"CGACGGCAUAUACACUACAGUG (chemistry not fully specified; listed as Homo sapiens) [native miR-489, 31]",did not inhibit cell growth,reduced the rate of cell proliferation,reduces cancer cell proliferation in a manner similar to that exhibited when cells are treated with 5-FU alone,reduction of MDC1 and SUZ12 protein expression,–,–,–,–,–,–,–,–,–,–,–,–,–,–,–,–
"GU^FCCAGU^FU^FU^FU^FCCCAGGAAU^FCCCU^F (GUCCAGUUUUCCCAGGAAUCCCU; RNA, [5FU] at 2, 7, 8, 9, 10, 19, 23, backbone not given here) [modified miR-145]",–,–,–,–,significant fold increase in the G1/S ratio,inhibited in a dose dependent manner,inhibited in a dose dependent manner,inhibited,inhibited,inhibited,inhibited,inhibited,inhibited in a dose dependent manner,–,–,–,–,–,–,–
"UAGCAGCACAUAAUGGUUUGUG (RNA, backbone not given here; listed as Homo sapiens) [unmodified miR-15a, reference compound]",–,–,–,–,–,–,–,–,–,–,–,–,–,53,about 3 fold,very few colonies,reduced,–,–,–
"U^FAAU^FACU^FGCCU^FGGU^FAAU^FGAU^FGA (UAAUACUGCCUGGUAAUGAUGA; RNA, [5FU] at 1, 4, 7, 11, 14, 17, 20, backbone not given here) [modified miR-200b, miR-200b in which all (7) U bases are replaced by 5-fluorouracil]",effectively reduced cell proliferation,dramatically reduced the cell growth from day 3,–,–,–,inhibited in a dose dependent manner,inhibited in a dose dependent manner,inhibited,inhibited,inhibited,inhibited,inhibited,inhibited in a dose dependent manner,–,–,–,–,significantly increase,reduction of fibronectin,breaks down TS-FdUMP
U^FGAGGU^FAGU^FAGGU^FU^FGU^FAU^FAGU^FU^F [modified miR-let-7],–,–,–,–,significant fold increase in the G1/S ratio,inhibited in a dose dependent manner,inhibited in a dose dependent manner,inhibited,inhibited,inhibited,inhibited,inhibited,inhibited in a dose dependent manner,–,–,–,–,–,–,–
